Tests used:
[1] = Dopamine D3 Receptor Binding Test: The experiment is carried out by the method according to Journal of Pharmacology and Experimental Therapeutics 2010, 333(1): 328. With [3H]methyl-spiperone (0.3 nM) as the ligand and (+)-butaclamol (10 LM) for determining non-specific binding, binding tests are carried out on human recombinant D3 receptor (expressed in CHO cells).; type: cell-based
[2] = biological target: T1, 5-hydroxytryptamine receptor 1A (Homo sapiens, UniProt P08908); assay: 5-HT1A Receptor Binding Test: 1. Experimental Materials:The isotopic ligand of 5-H1A receptor […] (purchased from PE Corporation), (+)5-hydroxytryptamine (purchased from Sigma Corporation), GF/B glassfiber filter (purchased from Whatman Corporation), fat-soluble scintillation fluid: PPO and POPOP (purchased from Shanghai No. 1 Reagent Factory), toluene (purchased from Sinopharm Chemical Reagent Co., Ltd), and Tris (imported and subpackaged).Cells: HEK-293 cells stably expressing 5-HT1A receptors as obtained by gene recombination are cultured for 3-5 days in cell culture medium DMEM supplemented with 10% serum. […] Total binding tube […] 20 μL D1 Binding Buffer 20 μL Cells 160 μL Non-specific tube […] 20 μL 5-HT(10−4) 20 μL Cells 160 μL Tube with the […] 20 μL compound to be tested The compound to be tested 20 μL Cells 160 μL The components are mixed to homogeneity, and then the above tubes are transferred to water bath at 30° C. (1 h), removed into ice bath immediately, and suction filtered on Harvest (with ice cold Tris eluate for 5 times).
T1 sequence (P08908 whole entry): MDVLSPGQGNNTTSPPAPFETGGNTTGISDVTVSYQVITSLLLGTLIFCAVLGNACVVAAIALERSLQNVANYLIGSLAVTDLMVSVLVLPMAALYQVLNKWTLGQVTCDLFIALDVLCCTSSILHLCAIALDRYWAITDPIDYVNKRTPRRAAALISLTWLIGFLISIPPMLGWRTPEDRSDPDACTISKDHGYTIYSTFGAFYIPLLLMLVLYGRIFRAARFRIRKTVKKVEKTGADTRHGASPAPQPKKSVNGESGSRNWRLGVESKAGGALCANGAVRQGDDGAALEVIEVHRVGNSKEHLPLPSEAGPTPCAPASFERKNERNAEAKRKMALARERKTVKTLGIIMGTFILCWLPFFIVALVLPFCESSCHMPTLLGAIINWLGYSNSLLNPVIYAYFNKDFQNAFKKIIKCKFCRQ

[3] = biological target: D(2) dopamine receptor (Homo sapiens, UniProt P14416); assay: Receptor Binding Test: 1. Experimental Materials:(1) D2 receptor Cell Transfection:This experiment utilizes the plasmid vector containing the gene of D2 receptor protein for transfecting HEK293 cells by calcium phosphate transfection method.
Chain of D(2) dopamine receptor (P14416 whole entry): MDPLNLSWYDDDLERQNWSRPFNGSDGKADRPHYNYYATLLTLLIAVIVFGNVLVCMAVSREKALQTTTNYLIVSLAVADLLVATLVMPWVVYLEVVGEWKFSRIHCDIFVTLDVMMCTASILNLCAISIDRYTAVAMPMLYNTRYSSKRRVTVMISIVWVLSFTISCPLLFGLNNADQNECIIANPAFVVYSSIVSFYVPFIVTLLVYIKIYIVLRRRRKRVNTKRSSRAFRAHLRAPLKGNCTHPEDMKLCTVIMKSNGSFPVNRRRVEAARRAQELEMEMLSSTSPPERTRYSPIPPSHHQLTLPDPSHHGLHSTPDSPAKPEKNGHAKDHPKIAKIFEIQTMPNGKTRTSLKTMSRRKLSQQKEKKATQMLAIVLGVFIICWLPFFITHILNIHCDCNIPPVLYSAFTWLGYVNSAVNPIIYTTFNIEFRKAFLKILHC

Compound | Ki [1] [nM] | Ki [2] [nM] | Ki [3] [nM]
O=C(N[C@H]1CC[C@H](CCN2CCN(c3nsc4ccccc34)CC2)CC1)Oc1ccc(Cl)cc1 | 11.6 | – | –
COC(=O)N[C@H]1CC[C@@H](CCN2CCN(c3nsc4ccccc34)CC2)CC1 | 0.087 | 2.55 | –
COC(=O)N[C@H]1CC[C@H](CCN2CCN(c3nsc4ccccc34)CC2)CC1 | 0.1 | – | –
O=C(N[C@H]1CC[C@H](CCN2CCN(c3nsc4ccccc34)CC2)CC1)OCc1ccccc1 | 0.061 | 0.79 | 1.6
O=C(N[C@H]1CC[C@H](CCN2CCN(c3nsc4ccccc34)CC2)CC1)OC1CCCCC1 | 4.3 | 1.69 | 11.8
O=C(N[C@H]1CC[C@H](CCN2CCN(c3nsc4ccccc34)CC2)CC1)Oc1ccccc1 | 0.74 | – | –
CC(C)COC(=O)N[C@H]1CC[C@H](CCN2CCN(c3nsc4ccccc34)CC2)CC1 | 0.093 | – | –
O=C(N[C@H]1CC[C@H](CCN2CCN(c3nsc4ccccc34)CC2)CC1)Oc1ccc([N+](=O)[O-])cc1 | 7.12 | – | 12.4
CCOC(=O)N[C@H]1CC[C@@H](CCN2CCN(c3nsc4ccccc34)CC2)CC1 | 0.46 | 0.97 | 1.97
O=C(N[C@H]1CC[C@@H](CCN2CCN(c3nsc4ccccc34)CC2)CC1)OCc1ccccc1 | 1.03 | 2.14 | 0.98
O=C(N[C@H]1CC[C@H](CCN2CCN(c3nsc4ccccc34)CC2)CC1)OC1CC1 | 1.81 | 3.95 | 3.26
COc1cccc(OC(=O)N[C@H]2CC[C@H](CCN3CCN(c4nsc5ccccc45)CC3)CC2)c1 | 1.05 | – | –
Cc1ccccc1OC(=O)N[C@H]1CC[C@H](CCN2CCN(c3nsc4ccccc34)CC2)CC1 | 8.49 | – | –

From ChEMBL document CHEMBL5725520, “Benzoisothiazole compounds and methods of treating schizophrenia” (2017)
